Reference: ChEMBL document CHEMBL5608201, “Discovery and optimization of thiazole-based quorum sensing inhibitors as potent blockers of Pseudomonas aeruginosa pathogenicity” (Eur J Med Chem, 2024)
Values after ≈ are worked out from the molar mass of the structure shown.

Experiments:
[1] = target: T1, Transcriptional regulator MvfR (Pseudomonas aeruginosa PA14, UniProt A0A072ZLE6); assay: Inverse agonist activity at Pseudomonas aeruginosa PqsR extracted from Escherichia coli Dh5alpha co-expressing lacZ incubated with test compound in presence of pseudomonas quinolone signal (PQS) by ONPG/heterologous reporter gene assay
T1 sequence (A0A072ZLE6 whole entry): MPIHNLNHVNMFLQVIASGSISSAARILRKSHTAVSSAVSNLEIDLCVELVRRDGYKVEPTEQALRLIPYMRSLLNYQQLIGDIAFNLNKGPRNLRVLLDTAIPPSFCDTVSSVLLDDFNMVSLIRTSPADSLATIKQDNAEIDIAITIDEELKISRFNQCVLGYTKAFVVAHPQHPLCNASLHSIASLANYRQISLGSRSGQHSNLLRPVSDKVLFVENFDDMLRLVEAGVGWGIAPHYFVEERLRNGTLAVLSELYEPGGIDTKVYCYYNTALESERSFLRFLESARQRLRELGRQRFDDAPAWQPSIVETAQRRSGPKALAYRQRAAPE

Pseudomonas aeruginosa = assay: Antivirulence activity against Pseudomonas aeruginosa PA14 assessed as inhibition of pyocyanin biosynthesis incubated for 16 hrs under agitation by photometric analysis; type: functional, organism-based; conditions: PA14, 16 h
[2] = Metabolic stability in mouse liver microsomes assessed as half life at 1 uM measured after 30 mins by HPLC-MS/MS analysis; type: ADME, Microsome
[3] = Kinetic aqueous solubility of the compound in PBS buffer incubated for 5 mins by turbidimetric aqueous solubility assay; type: physicochemical; conditions: read-out: Kinetic_solubility
[4] = Lipophilicity, log D of the compound; type: physicochemical; conditions: octanol/water
[5] = Cytotoxicity against human HepG2 cells assessed as viable cells; type: toxicity, cell-based; conditions: read-out: LD50 (the source's name)
[6] = Metabolic stability in human liver S9 fraction assessed as half life; type: ADME, subcellular
[7] = Cytotoxicity against human HepG2 cells assessed as viable cells at 25 uM relative to control; type: toxicity, cell-based; conditions: read-out: Activity
[8] = Cytotoxicity against human HEK293 cells assessed as viable cells; type: toxicity, cell-based; conditions: read-out: LD50 (the source's name)
[9] = Cytotoxicity against human HEK293 cells assessed as viable cells at 25 uM relative to control; type: toxicity, cell-based; conditions: read-out: Activity
[10] = target: Voltage-gated inwardly rectifying potassium channel KCNH2 (Homo sapiens, UniProt Q12809); assay: Inhibition of hERG; type: toxicity
[11] = Plasma protein binding in human; type: ADME, cell-free; conditions: read-out: PPB
[12] = Plasma protein binding in mouse; type: ADME, cell-free; conditions: read-out: PPB
Cytochrome P450 3A4 = Cytochrome P450 3A4 (Homo sapiens, UniProt P08684); assay: Inhibition of CYP3A4 (unknown origin); type: ADME
Cytochrome P450 2D6 = Cytochrome P450 2D6 (Homo sapiens, UniProt P10635); assay: Inhibition of CYP2D6 (unknown origin); type: ADME
CYP1A = target: T2, CYP1A (Homo sapiens, UniProt P04798+P05177); assay: Inhibition of CYP1A (unknown origin); type: ADME, protein assay
T2 sequence (P04798 whole entry): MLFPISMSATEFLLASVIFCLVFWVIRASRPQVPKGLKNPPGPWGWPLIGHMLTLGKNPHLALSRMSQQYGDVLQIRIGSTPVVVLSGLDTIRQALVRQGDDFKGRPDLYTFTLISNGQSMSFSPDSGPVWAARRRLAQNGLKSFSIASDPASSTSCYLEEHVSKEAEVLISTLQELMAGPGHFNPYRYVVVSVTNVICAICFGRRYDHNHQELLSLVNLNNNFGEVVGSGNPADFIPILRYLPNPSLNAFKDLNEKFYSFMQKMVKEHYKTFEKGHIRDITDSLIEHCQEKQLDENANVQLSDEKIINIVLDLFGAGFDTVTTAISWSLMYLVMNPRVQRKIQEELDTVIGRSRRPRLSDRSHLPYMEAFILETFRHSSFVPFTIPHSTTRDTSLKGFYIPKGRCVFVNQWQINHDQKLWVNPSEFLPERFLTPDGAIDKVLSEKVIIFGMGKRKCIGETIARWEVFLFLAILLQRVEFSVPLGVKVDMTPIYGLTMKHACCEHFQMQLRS
T2 sequence (P05177 whole entry): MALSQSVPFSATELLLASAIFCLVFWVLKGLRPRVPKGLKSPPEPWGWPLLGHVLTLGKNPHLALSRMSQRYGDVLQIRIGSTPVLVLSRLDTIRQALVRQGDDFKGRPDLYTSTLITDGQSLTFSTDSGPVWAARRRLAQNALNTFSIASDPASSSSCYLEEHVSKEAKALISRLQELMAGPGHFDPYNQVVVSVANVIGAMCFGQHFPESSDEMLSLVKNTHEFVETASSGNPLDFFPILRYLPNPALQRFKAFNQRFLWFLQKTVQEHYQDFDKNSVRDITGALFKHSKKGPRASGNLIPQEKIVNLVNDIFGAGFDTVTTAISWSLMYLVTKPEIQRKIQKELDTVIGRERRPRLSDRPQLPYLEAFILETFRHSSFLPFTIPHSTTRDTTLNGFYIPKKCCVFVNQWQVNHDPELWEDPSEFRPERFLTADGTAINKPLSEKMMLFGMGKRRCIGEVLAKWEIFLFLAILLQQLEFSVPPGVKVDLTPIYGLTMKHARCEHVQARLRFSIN

Cytochrome P450 2C9 = Cytochrome P450 2C9 (Homo sapiens, UniProt P11712); assay: Inhibition of CYP2C9 (unknown origin); type: ADME
Cytochrome P450 2C19 = Cytochrome P450 2C19 (Homo sapiens, UniProt P33261); assay: Inhibition of CYP2C19 (unknown origin); type: ADME
[13] = Cytotoxicity against human HEK293 cells assessed as viable cells at 50 uM relative to control; type: toxicity, cell-based; conditions: read-out: Activity
[14] = Selectivity ratio of LD50 for Cytotoxicity against human HEK293 cells to IC50 for Inverse agonist activity at Pseudomonas aeruginosa PqsR; type: toxicity, cell-based

Cytochrome P450 2C19, sequence (P33261 whole entry): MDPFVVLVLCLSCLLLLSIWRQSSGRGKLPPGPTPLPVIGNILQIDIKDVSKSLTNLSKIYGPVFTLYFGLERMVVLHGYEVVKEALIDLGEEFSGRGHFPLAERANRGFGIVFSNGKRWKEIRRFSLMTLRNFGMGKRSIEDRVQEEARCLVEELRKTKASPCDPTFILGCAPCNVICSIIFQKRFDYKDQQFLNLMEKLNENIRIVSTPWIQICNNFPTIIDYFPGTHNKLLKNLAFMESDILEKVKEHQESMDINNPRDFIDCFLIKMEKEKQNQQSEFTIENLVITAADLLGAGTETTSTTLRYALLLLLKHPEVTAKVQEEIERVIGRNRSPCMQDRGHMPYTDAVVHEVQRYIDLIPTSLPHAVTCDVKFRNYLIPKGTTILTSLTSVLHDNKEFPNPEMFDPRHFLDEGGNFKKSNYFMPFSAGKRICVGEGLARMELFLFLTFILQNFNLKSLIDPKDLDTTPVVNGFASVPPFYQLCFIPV
Cytochrome P450 2D6, sequence (P10635 whole entry): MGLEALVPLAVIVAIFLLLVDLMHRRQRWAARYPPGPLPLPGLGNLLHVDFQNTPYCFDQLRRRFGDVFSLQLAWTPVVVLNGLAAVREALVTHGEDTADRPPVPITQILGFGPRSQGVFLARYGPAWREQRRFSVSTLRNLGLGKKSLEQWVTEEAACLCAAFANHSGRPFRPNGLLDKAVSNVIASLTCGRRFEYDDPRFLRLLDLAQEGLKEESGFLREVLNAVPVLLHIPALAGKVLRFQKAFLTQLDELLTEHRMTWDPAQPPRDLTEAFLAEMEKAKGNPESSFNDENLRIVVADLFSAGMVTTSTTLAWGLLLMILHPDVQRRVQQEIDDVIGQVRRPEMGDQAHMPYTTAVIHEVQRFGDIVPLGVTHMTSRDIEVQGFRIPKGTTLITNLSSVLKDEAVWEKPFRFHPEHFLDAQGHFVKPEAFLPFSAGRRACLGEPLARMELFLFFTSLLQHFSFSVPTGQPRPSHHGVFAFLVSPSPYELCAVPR
Cytochrome P450 3A4, sequence (P08684 whole entry): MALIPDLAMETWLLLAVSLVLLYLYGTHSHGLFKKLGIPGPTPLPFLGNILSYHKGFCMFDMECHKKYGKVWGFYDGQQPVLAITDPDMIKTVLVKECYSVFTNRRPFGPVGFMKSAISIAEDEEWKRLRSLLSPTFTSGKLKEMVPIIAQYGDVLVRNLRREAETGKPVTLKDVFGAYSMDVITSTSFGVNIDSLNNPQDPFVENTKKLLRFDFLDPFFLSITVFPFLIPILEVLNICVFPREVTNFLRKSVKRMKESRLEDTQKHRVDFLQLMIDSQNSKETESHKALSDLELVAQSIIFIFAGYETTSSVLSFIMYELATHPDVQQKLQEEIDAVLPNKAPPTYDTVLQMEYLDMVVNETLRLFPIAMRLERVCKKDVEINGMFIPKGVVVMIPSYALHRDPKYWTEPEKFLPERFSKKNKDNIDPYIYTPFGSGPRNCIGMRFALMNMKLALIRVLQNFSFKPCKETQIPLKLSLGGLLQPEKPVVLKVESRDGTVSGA
Cytochrome P450 2C9, sequence (P11712 whole entry): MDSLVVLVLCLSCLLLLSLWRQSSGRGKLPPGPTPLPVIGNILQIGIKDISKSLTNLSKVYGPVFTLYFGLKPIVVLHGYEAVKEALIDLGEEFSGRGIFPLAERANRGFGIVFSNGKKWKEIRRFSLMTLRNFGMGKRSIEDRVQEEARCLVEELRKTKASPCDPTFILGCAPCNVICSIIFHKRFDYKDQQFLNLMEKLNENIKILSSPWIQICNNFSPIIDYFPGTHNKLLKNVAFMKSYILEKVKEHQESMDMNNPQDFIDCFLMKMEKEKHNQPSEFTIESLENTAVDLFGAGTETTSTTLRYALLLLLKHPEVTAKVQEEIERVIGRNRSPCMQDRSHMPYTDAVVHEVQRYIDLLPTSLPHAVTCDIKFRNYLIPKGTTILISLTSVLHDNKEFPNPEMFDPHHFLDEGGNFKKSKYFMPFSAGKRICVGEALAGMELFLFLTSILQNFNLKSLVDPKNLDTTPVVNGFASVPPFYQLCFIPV
Voltage-gated inwardly rectifying potassium channel KCNH2, sequence (Q12809 whole entry): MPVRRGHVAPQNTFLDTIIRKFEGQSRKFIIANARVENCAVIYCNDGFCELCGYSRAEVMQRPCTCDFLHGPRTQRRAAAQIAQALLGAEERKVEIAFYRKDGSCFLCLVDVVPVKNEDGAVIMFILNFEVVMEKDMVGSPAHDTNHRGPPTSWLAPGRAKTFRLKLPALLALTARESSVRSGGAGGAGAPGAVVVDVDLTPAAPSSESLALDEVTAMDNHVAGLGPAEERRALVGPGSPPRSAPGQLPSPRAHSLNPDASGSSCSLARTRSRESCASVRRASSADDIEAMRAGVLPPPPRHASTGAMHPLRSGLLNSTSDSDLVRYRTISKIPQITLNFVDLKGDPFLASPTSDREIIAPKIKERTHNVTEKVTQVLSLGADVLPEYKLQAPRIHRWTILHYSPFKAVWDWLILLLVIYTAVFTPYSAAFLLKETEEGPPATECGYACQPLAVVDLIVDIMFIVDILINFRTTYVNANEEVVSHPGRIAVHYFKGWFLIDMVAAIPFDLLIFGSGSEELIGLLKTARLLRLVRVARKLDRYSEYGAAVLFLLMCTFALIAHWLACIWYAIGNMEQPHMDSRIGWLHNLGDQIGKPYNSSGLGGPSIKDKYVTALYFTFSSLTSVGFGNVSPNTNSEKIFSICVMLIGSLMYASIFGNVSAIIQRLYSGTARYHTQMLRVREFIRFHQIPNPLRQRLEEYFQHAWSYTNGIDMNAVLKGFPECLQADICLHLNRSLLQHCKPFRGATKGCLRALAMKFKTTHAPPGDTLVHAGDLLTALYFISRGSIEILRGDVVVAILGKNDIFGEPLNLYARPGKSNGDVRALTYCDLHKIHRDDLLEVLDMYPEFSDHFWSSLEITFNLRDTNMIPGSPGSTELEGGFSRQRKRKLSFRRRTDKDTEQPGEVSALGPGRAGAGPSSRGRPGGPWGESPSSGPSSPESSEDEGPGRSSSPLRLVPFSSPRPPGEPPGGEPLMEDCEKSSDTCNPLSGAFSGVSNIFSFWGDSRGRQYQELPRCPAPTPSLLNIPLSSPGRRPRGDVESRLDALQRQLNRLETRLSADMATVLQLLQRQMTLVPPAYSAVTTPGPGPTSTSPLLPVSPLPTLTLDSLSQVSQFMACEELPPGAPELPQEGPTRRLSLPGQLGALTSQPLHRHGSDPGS

| SMILES | IC50 [1] [µM] | IC50 (Pseudomonas aeruginosa) [µM] | half-life at 1 µM [2] [min] | solubility kinetic at 5 min [3] [µM] | logD [4] | CC50 [5] [µM] | half-life [6] [min] | viability at 25 µM [7] [%] | CC50 [8] [µM] | viability at 25 µM [9] [%] | IC50 [10] [µM] | fraction unbound [11] | fraction unbound [12] | IC50 (Cytochrome P450 3A4) [µM] | IC50 (Cytochrome P450 2D6) [µM] | IC50 (CYP1A) [µM] | IC50 (Cytochrome P450 2C9) [µM] | IC50 (Cytochrome P450 2C19) [µM] | viability at 50 µM [13] [%] | selectivity ratio [14] |
| --- | --- | --- | --- | --- | --- | --- | --- | --- | --- | --- | --- | --- | --- | --- | --- | --- | --- | --- | --- | --- |
| CC(C)Oc1ccc(-c2ncc(CNc3ccnc(C(F)(F)F)c3)s2)cc1Cl | 0.008 | 0.106 | 20 | 7 (≈ 3 µg/mL) | 4.51 | ~25 | > 60 | 49 | ~25 | 51 | > 25 | < 0.01 | < 0.01 | > 25 | > 25 | > 25 | 16.4 | 17.1 |  |  |
| CC(C)Oc1ccc(-c2ncc(CNc3ccnc(C#N)c3)s2)cc1Cl | 0.005 | 0.098 | 11 | 7 (≈ 2.69 µg/mL) | 4.83 | > 25 | > 60 | 59 | ~50 |  | 13.2 | < 0.01 | < 0.01 | > 25 | > 25 | > 25 | > 25 | 21.4 | 51 | 10000 |
